Reference: paper PMC8486872, “A rational blueprint for the design of chemically-controlled protein switches” (Nature Communications, 2021)
Several values for one entry are separate records, joined by “and”; a condition that tells them apart may be missing. Equal entries are not always repeated. Entries after “also recorded” stand apart in the source; their conditions may differ.

Tests used:
[1] = test system: JAK/STAT pathway SEAP expression in HEK293T cells; test: CDH-GEMS receptor signaling SEAP assay; assay type: cell-based
Source text: To test modularity and performance robustness of the CDHs in different molecular contexts, we inserted these modules in the generalizable extracellular molecule sensor (GEMS) receptor signaling pathway platform[24] and built CDH-GEMS. In these constructs the CDHs are localized extracellularly and function as ectodomain switches, fused to the backbone of the erythropoietin receptor, and an intracellular interleukin 6 receptor domain which activates the JAK/STAT pathway (Fig. 3d). The CDH-GEMS trigger the activation of the JAK/STAT pathway by the dimerization of their subunits. Thus, the drugs are expected to split the CDHs inactivating the signaling pathway as assessed by the expression of the reporter protein SEAP. All three CDH-GEMS were responsive to their respective drugs dynamic response range varied from approximately 6-fold (CDH-2) to 8-fold (CDH-1,3) (Fig. 3e). […] The CDH-GEMS were also reversible upon intermittent drug treatment (Supplementary Fig. 7h, i). Despite that comparisons between CDH-TFs and CDH-GEMS are not straightforward due to differences in the reporter signaling pathways, we observe a general trend for the CDHs to present lower IC50s when used as extracellular modules, which is consistent with overcoming drug permeability issues in cells.
HEK293T cells were maintained in DMEM medium with 10% FBS (Gibco) and Pen/Strep (Thermo Fisher). Cells were maintained and split every two days at around 80% confluence. HEK293T cells were seeded 24 h before transfection, and transfected with the lipofectamine 3000 kit (Thermo Fisher). Plasmids were cotransfected according to the Table S7. For the drug OFF-switch experiments, drugs were added 12 h post transfection and incubated with cells for 24 h before the SEAP detection assay.
Secreted alkaline phosphatase (SEAP) activity (U/L) in cell culture supernatants was quantified by kinetic measurements at 405 nm (1 min/measurement for 30 cycles) of absorbance increase due to phosphatase-mediated hydrolysis of para-nitrophenyl phosphate (pNPP).
Apparent IC50s of SPR drug competition assay were calculated using three-parameter nonlinear regression in GraphPad Prism (Version 8.3.0). Representative data of cellular assays are presented as individual values and mean values (bars). n = 3 refers to biological replicates. All IC50/EC50 values of cellular assays (CDH-TF, CDH-GEMS, AIR-TF and AIR-GEMS) reported were calculated using four-parameter nonlinear regression ± s.d.
Supplementary Figure 9: Comparison of ON-state reporter expression of weak affinity variants of LD3 in CDH-1/2-GEMS platform. a) ON-state expression of CDH-1-GEMS with LD3 and LD3_v3. b) Drug dose-dependent responses in engineered cells determined for the CDH-1-GEMS with LD3 and LD3_v3. c) ON-state expression of CDH-2-GEMS with LD3 and LD3_v3. d) Drug dose-dependent responses in engineered cells determined for the CDH-2-GEMS with LD3 and LD3_v3. In the data shown HEK293T cells were […]
quantification was done 24 hours after drug treatment. a, c) The bar charts show the mean ± s.d. of n = 3 biologically independent samples overlaid with a scatter dot plot of the original data points. b, d) Each […]
parameter nonlinear regression.
(§1) (1 picture or pasted object on this page, not shown here)

[2] = biological target: Bcl2:LD3 complex (CDH-2) (Homo sapiens, UniProt P10415); test: SEC-MALS drug-induced monomerization of Bcl2:LD3; conditions: 50 µM proteins, 100 µM drug
Experimental: LD6 was further characterized by Size Exclusion Chromatography coupled to Light Scattering (SEC-MALS) for solution behavior, and to study dimerization and drug-induced monomerization properties. LD6 was injected at 50–100 µM into a Superdex^TM 75 300/10 GL column (GE Healthcare) using a high-performance liquid chromatography system (Ultimate 3000, Thermo Scientific) at a flow rate of 0.5 ml/min. The UV spectrum at 280 nm was collected along with static light scatter signal by a MALS device (miniDAWN TREOS, Wyatt). […] Then the mixtures were treated with either 100 µM (two-fold excess) of the corresponding drugs or the same volume of DMSO to detect complex formation and forced dissociation in SEC-MALS. The light scatter signal of the sample was collected from three different angles and the results were analyzed using the ASTRA software (version 6.1, Wyatt).
Supplementary Figure 1: Biophysical characterization of CDH-2.
Drug concentrations from 0.01 nM to
10 µM were pre-incubated with 4 µM LD3, then the mixtures were injected over a Bcl2-immobilized chip.
Response units reflect the remaining interaction of Bcl2 and LD3 in the presence of serial diluted Drug-
2. d) SEC-MALS analysis of CDH-2 showing Bcl2:LD3 complex with DMSO (black trace) and Bcl2:LD3
and LD3 (16 kDa) eluted around 22 minutes.
as §1

[3] = test system: JAK/STAT pathway SEAP expression in HEK293T cells; test: AIR-GEMS ON-switch SEAP assay; conditions: Homo sapiens, HEK-293T, read-out: EC50, AIR-2-GEMS activation by Drug-2
Source text: We fused the AIR components in the ectodomains of the GEMS and measured SEAP activity as a reporter for drug-triggered activation.
Bcl2 mutants were cloned into the AIR-GEMS

Chain of Bcl2:LD3 complex (CDH-2) (P10415 with tags, fused parts or gaps): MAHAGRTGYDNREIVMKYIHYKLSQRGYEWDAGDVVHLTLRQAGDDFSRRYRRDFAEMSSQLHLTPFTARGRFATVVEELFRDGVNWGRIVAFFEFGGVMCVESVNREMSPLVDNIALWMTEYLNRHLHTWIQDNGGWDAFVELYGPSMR

CN(C)CC#Cc1ccc(OCCCc2sc(N3CCc4cccc(C(=O)Nc5nc6ccccc6s5)c4C3)nc2C(=O)O)c(F)c1 [Drug-1, A-1155463]
SEAP % ([1]; Suppl Fig 9b, BclxL:LD3, 0.001 nM): 18.0122% and 17.4443% and 16.8298% | SEAP % ([1]; Suppl Fig 9b, BclxL:LD3, 0.005 nM): 16.6899% and 17.1312% and 17.1781% | SEAP % ([1]; Suppl Fig 9b, BclxL:LD3, 0.01 nM): 17.4444% and 15.5469% and 16.1047% | SEAP % ([1]; Suppl Fig 9b, BclxL:LD3, 0.05 nM): 15.1537% and 15.6285% and 14.5618% | SEAP % ([1]; Suppl Fig 9b, BclxL:LD3, 0.1 nM): 14.6667% and 14.1653% and 14.4377% | SEAP % ([1]; Suppl Fig 9b, BclxL:LD3, 0.5 nM): 13.4918% and 13.7573% and 13.7645% | SEAP % ([1]; Suppl Fig 9b, BclxL:LD3, 1 nM): 11.4623% and 11.7897% and 11.4884% | SEAP % ([1]; Suppl Fig 9b, BclxL:LD3, 5 nM): 7.87% and 8.2239% and 7.705% | SEAP % ([1]; Suppl Fig 9b, BclxL:LD3, 10 nM): 5.487% and 5.0968% and 5.0693% | SEAP % ([1]; Suppl Fig 9b, BclxL:LD3, 50 nM): 4.04% and 4.459% and 3.462% | SEAP % ([1]; Suppl Fig 9b, BclxL:LD3, 100 nM): 4.1212% and 3.83% and 3.424% | SEAP % ([1]; Suppl Fig 9b, BclxL:LD3, 500 nM): 3.2684% and 3.043% and 3.776% | SEAP % ([1]; Suppl Fig 9b, BclxL:LD3, 1000 nM): 3.47% and 3.522% and 3.463% | SEAP % ([1]; Suppl Fig 9b, BclxL:LD3_v3, 0.001 nM): 16.3076% and 17.437% and 16.859% | SEAP % ([1]; Suppl Fig 9b, BclxL:LD3_v3, 0.005 nM): 14.9031% and 15.6748% and 15.9103% | SEAP % ([1]; Suppl Fig 9b, BclxL:LD3_v3, 0.01 nM): 13.8744% and 14.7636% and 15.1685% | SEAP % ([1]; Suppl Fig 9b, BclxL:LD3_v3, 0.05 nM): 12.8457% and 12.494% and 13.0699% | SEAP % ([1]; Suppl Fig 9b, BclxL:LD3_v3, 0.1 nM): 9.936% and 9.732% and 9.834% | SEAP % ([1]; Suppl Fig 9b, BclxL:LD3_v3, 0.5 nM): 8.327% and 7.455% and 7.64% | SEAP % ([1]; Suppl Fig 9b, BclxL:LD3_v3, 1 nM): 9.561% and 8.788% and 8.726% | SEAP % ([1]; Suppl Fig 9b, BclxL:LD3_v3, 5 nM): 4.582% and 4.8104% and 5.942% | SEAP % ([1]; Suppl Fig 9b, BclxL:LD3_v3, 10 nM): 4.563% and 3.586% and 4.47% | SEAP % ([1]; Suppl Fig 9b, BclxL:LD3_v3, 50 nM): 5.174% and 5.025% and 4.8595% | SEAP % ([1]; Suppl Fig 9b, BclxL:LD3_v3, 100 nM): 4.401% and 4.122% and 4.248% | SEAP % ([1]; Suppl Fig 9b, BclxL:LD3_v3, 500 nM): 4.318% and 3.762% and 3.577% | SEAP % ([1]; Suppl Fig 9b, BclxL:LD3_v3, 1000 nM): 4.822% and 4.215% and 3.859%

CC1(C)CCC(CN2CCN(c3ccc(C(=O)NS(=O)(=O)c4ccc(NCC5CCOCC5)c([N+](=O)[O-])c4)c(Oc4cnc5[nH]ccc5c4)c3)CC2)=C(c2ccc(Cl)cc2)C1 [Drug-2, Venetoclax]
SEAP % ([1]; Suppl Fig 9d, Bcl2:LD3, 0.001 nM): 300.653% and 318.178% and 392.457% | SEAP % ([1]; Suppl Fig 9d, Bcl2:LD3, 0.01 nM): 308.454% and 345.509% and 340.557% | SEAP % ([1]; Suppl Fig 9d, Bcl2:LD3, 0.1 nM): 274.777% and 330.791% and 315.073% | SEAP % ([1]; Suppl Fig 9d, Bcl2:LD3, 1 nM): 266.802% and 312.808% and 313.179% | SEAP % ([1]; Suppl Fig 9d, Bcl2:LD3, 10 nM): 230.526% and 261.334% and 264.64% | SEAP % ([1]; Suppl Fig 9d, Bcl2:LD3, 50 nM): 182.557% and 182.048% and 191.603% | SEAP % ([1]; Suppl Fig 9d, Bcl2:LD3, 100 nM): 137.415% and 148.555% and 171.413% | SEAP % ([1]; Suppl Fig 9d, Bcl2:LD3, 500 nM): 103.855% and 121.158% and 118.471% | SEAP % ([1]; Suppl Fig 9d, Bcl2:LD3, 1000 nM): 85.4687% and 78.7046% and 88.4921% | SEAP % ([1]; Suppl Fig 9d, Bcl2:LD3_v3, 0.001 nM): 435.755% and 579.505% and 634.353% | SEAP % ([1]; Suppl Fig 9d, Bcl2:LD3_v3, 0.01 nM): 426.219% and 513.058% and 543.118% | SEAP % ([1]; Suppl Fig 9d, Bcl2:LD3_v3, 0.1 nM): 389.885% and 497.895% and 507.442% | SEAP % ([1]; Suppl Fig 9d, Bcl2:LD3_v3, 1 nM): 349.489% and 416.083% and 425.558% | SEAP % ([1]; Suppl Fig 9d, Bcl2:LD3_v3, 10 nM): 179.661% and 237.904% and 242.508% | SEAP % ([1]; Suppl Fig 9d, Bcl2:LD3_v3, 50 nM): 112.482% and 132.539% and 150.605% | SEAP % ([1]; Suppl Fig 9d, Bcl2:LD3_v3, 100 nM): 97.6884% and 119.034% and 118.118% | SEAP % ([1]; Suppl Fig 9d, Bcl2:LD3_v3, 500 nM): 69.1684% and 95.9179% and 92.604% | SEAP % ([1]; Suppl Fig 9d, Bcl2:LD3_v3, 1000 nM): 52.9029% and 66.0602% and 70.7894% | disruption of Bcl2:LD3 complex by SEC-MALS [2]: effectively disrupts; also recorded: did not result in complex formation | EC50 [3]: 0.5 nM
